Measured values as given in ChEMBL document CHEMBL1143119, “Novel methylene-linked heterocyclic EP1 receptor antagonists” (Bioorg Med Chem Lett, 2008).

Assays:
[1] = Distribution coefficient, log D at pH 7.8; type: physicochemical; conditions: octanol/water
[2] = target: T1, Prostaglandin E2 receptor EP1 subtype (Homo sapiens, UniProt P34995); experiment: Displacement of [3H]PGE2 from EP1 receptor
T1 sequence (P34995 whole entry): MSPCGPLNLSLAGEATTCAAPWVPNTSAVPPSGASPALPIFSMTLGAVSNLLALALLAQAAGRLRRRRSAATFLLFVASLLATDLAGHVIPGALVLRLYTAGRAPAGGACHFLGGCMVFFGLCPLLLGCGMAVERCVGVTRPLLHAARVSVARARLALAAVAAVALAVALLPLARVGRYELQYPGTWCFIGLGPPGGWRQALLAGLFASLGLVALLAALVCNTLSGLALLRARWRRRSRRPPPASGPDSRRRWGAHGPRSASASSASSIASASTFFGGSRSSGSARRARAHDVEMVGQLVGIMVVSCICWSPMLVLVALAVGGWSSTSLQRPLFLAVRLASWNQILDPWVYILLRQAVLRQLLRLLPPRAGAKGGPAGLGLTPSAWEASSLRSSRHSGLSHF

[3] = target: T1, Prostaglandin E2 receptor EP1 subtype; experiment: Antagonist activity at EP1 receptor by FLIPR assay; type: functional

logD [1] | IC50 [2] [nM] | Ki [3] [nM] | Structure (SMILES)
3 | – | – | O=C(O)c1cccc(C2=C(c3cc(Cl)ccc3OCc3ccccc3)CCC2)c1
3.1 | – | – | Cc1ccc(-c2cc(Cl)ccc2OCC(C)C)n1-c1cccc(C(=O)O)c1
1.2 | 6.31 | – | Cc1cc(C(=O)O)nn1Cc1cc(Br)ccc1OCc1ccccc1
– | 7.94 | – | CC(C)COc1ccc(Cl)cc1Cc1nc(C(=O)O)cs1
1.2 | 6.31 | – | O=C(O)c1csc(Cc2cc(Cl)ccc2OCc2ccccc2)n1
2.8 | 39.8 | – | O=C(O)c1csc(Cc2cc(Cl)ccc2OCc2ccccc2)c1
0.5 | 20 | 1.58 | O=C(O)c1coc(Cc2cc(Cl)ccc2OCc2ccccc2)n1
0.9 | 631 | – | O=C(O)c1cnc(Cc2cc(Cl)ccc2OCc2ccccc2)s1
1.1 | 25.1 | – | O=C(O)c1nc(Cc2cc(Cl)ccc2OCc2ccccc2)cs1
1.4 | 631 | – | O=C(O)c1cncc(Cc2cc(Cl)ccc2OCc2ccccc2)c1
1.1 | > 1000 | – | O=C(O)c1ccnc(Cc2cc(Cl)ccc2OCc2ccccc2)c1
– | > 1000 | – | O=C(O)Cc1csc(Cc2cc(Cl)ccc2OCc2ccccc2)n1
– | > 1000 | – | Cc1cc(CC(=O)O)nn1-c1cc(Cl)ccc1OCc1ccccc1
– | 631 | – | O=C(O)c1csc(-c2cc(Cl)ccc2OCc2ccccc2)n1
2.2 | 158 | – | O=C(O)c1cccc(Cc2cc(Cl)ccc2OCc2ccccc2)n1
1.5 | 6.31 | 2 | O=C(O)c1ccc(Cc2cc(Cl)ccc2OCc2ccccc2)o1

logD [1] | IC50 [2] [nM] | Ki [3] [nM] | Structure (SMILES)
– | 794 | – | O=C(O)c1cccc(Oc2cc(Cl)ccc2OCc2ccccc2)n1
2.5 | – | – | Cc1ccc(-c2cc(Cl)ccc2OCc2ccccc2)n1-c1cccc(C(=O)O)c1
– | 25.1 | – | O=C(O)c1csc(Nc2cc(Cl)ccc2OCc2ccccc2)n1
– | 39.8 | 158 | CC(C)COc1ccc(Cl)cc1Cc1cccc(C(=O)O)n1
– | 3.16 | 0.316 | CC(C)COc1ccc(Cl)cc1Cc1ccc(C(=O)O)o1
3 | 158 | – | Cc1cc(C(=O)O)cn1Cc1cc(Cl)ccc1OCc1ccccc1
0.7 | 79.4 | – | O=C(O)c1ccn(Cc2cc(Cl)ccc2OCc2ccccc2)n1
– | > 1000 | – | O=C(O)c1cccc(Nc2ccccc2OCc2ccccc2)n1
3 | 316 | – | O=C(O)c1cccc(Cc2cc(Cl)ccc2OCc2ccccc2)c1
1 | 10 | – | Cc1cc(C(=O)O)nn1Cc1cc(Cl)ccc1OCc1ccccc1
– | 50.1 | – | O=C(O)Cc1csc(-c2cc(Cl)ccc2OCc2ccccc2)n1
1.8 | 10 | 2 | Cc1cc(C(=O)O)oc1Cc1cc(Cl)ccc1OCc1ccccc1
2.3 | 50.1 | 15.8 | O=C(O)c1ccc(Cc2cc(Cl)ccc2OCc2ccccc2)s1
0.7 | 316 | – | Cn1cc(C(=O)O)nc1Cc1cc(Cl)ccc1OCc1ccccc1
0.6 | > 1000 | – | O=C(O)c1c[nH]c(Cc2cc(Cl)ccc2OCc2ccccc2)n1
0.7 | > 1000 | – | Cn1c(C(=O)O)cnc1Cc1cc(Cl)ccc1OCc1ccccc1

Structure (SMILES) | logD [1] | IC50 [2] [nM] | Ki [3] [nM]
Cc1cc(C(=O)O)nn1Cc1cc(Cl)ccc1OCC(C)C | – | 10 | 0.794
